Source: US20090232909A1, “Method for determining physiological effects of hemoglobin” (priority 1999, published 2009)

Key:
oxyHb = target: T1, oxyHb (Homo sapiens, UniProt P68871+P69905); assay: Nitrosyl content of normoxic oxyHb after exposure to NO, photolysis-chemiluminescence; assay type: biochemical
T1 construct: purchased Apex Bioscience (Research Triangle Park, N.C.)
Experimental: Nitroso/nitrosyl derivatives of Hb were measured using a photolysis-chemiluminescence technique [6-fold excess HgCl2 over protein was added to displace S-nitrosothiol (SNO) (Stamler, J. S., et al., Science, 276:2034-2037, 1997)]. Samples were kept on ice for a period of 5 minutes to 2 hours before analyses. MetHb was monitored by UV-visible spectroscopy as the difference absorption above the linear baseline (600-700 nm), and EPR (below).
(A) Nitrosyl content of oxyHb (10 mM phosphate 100 μM DTPA, pH 7.4) after exposure to 1.2 μM NO, as measured by photolysis-chemiluminescence (Stamler, J. S., et al., Science, 276:2034-2037, 1997). Nitrosyl yield increases as a function of Hb concentration (P<0.05). Solid symbols, absolute yield of NO bound to Hb (FeNO plus SNO); open symbols, percentage of NO added. Data shown are the average of 7 to 19 experiments±SE. (B) Standard difference spectra of metHb (solid line), deoxyHb (dotted line), and iron nitrosylHb (dashed line) vs. oxyHb. (C) Difference spectra generated from the exposure of NO to normoxic (≈99% oxygen saturation) Hb. NO was added (in 10 aliquots totaling 2.2 μM) to 33 μM Hb in 100 mM phosphate (solid line) or 10 mM phosphate (dotted line) or 10 mM phosphate plus 0.05% borate (dashed line). […] Specifically, spectra in C were fitted, by a least-squares process, to either the simple competition model or the cooperativity model without a mass balance constraint. Cooperativity is present if add increases above that reported in the literature, as a function of oxygen tension.
(A) SOD increases the yield of NO bound to Hb. The experiments in FIG. 3A were repeated in the absence (solid line; 1.2 μM NO) or presence (dashed line; 1.5 μM NO) of 1, 190 units/ml of SOD, which enhances the yield of nitrosyl species to approximately 100% of the NO added. Similar nitrosyl yields were obtained by using stroma-free Hb (25 μM), which is enriched in endogenous SOD (open circle). Data shown are the average of five to nine experiments±SE. (B) EPR spectrum of a DNIC formed by exposure of oxyHb (≈99% sat; 3.93 mM) to NO (36 μM). (C)S-nitrosoHb and iron nitrosylHb formed by exposure of oxyHb (=99% sat., 48 μM) to NO (1.2 μM). SNO (hatched bar) and FeNO (solid bar) were measured by photolysis-chemiluminescence (Stamler, J. S., et al., Science, 276:2034-2037, 1997). Data shown are the average of 12 experiments±SE. (D) Measurement of intraerythrocytic S-nitrosoHb and iron nitrosylHb formed by exposure of oxygenated RBCs (mean [Hb], 25 μM) to 0.3 μM NO. Isolation of Hb and measurements were as previously described (Stamler, J. S., et al., Science, 276:2034-2037, 1997). Data are the mean of 12 experiments±SE.

Hb = Hb (Homo sapiens, UniProt P68871+P69905); assay: EPR of iron nitrosyl-Hb formed by limiting NO with variously oxygenated Hb; assay type: biochemical; parameters: purchased Apex Bioscience (Research Triangle Park, N.C.)
Description: To investigate the reaction of NO with oxyHb, we begin by adopting the conventional viewpoint that: NO consumption involves a competition between the oxidation reaction (Eq. 1) and the adduct-forming addition reaction (Eq. 2); and that the specific rate constants for these reactions, namely kox and kadd, are independent of the degree of oxygen saturation (Y) of the hemes.
[Fe(II)NO]/[NO]0=1−Y/[1−Y+κY] [4]
HbA0 was obtained from Apex Bioscience (Research Triangle Park, N.C.). Buffer exchange was achieved by dialysis. Deoxygenation was performed by gas exchange with argon in a tonometer. NO was added from a stock solution prepared under ultrapure helium and purified across alkali and cold traps. Stock solutions of NO were prepared in phosphate buffered saline containing 100 μM DTPA, pH 7.4. NO injections were made via a gas tight Hamilton syringe with Teflon seal. The concentration of NO in stock solutions was assayed by electrode and by a Sievers 280 NO analyzer (Boulder Colo.).
EPR spectroscopy was carried out with samples in 4-mm i.d. fused silica tubes, at 76° K, on a Varian E-9 spectrometer. UV-visible spectra were taken after NO addition. The sample was then placed in a deoxygenated EPR tube and plunged into liquid N2. EPR spectra of nitrosylHb or dinitrosyl iron complexes (DNICs) were recorded in a single 4-min. scan over 400 G on a Varian E-9 spectrometer operating at 9.274 GHz, with 10-mW microwave power, 10-20 G amplitude of field modulation at 100 kHz, and time constant of 0.250 sec. Spectra of high-spin metHb were recorded with a scan of 1000 G, 20 G modulation amplitude, time constant of 0.128 sec, under otherwise identical conditions. NitrosylHb was measured by double integration of EPR spectra and by comparison to EPR spectra of Hb(NO)4 standardized with UV-visible spectroscopy. The reproducibility of nitrosylHb measurements was estimated to be ±6% by repeated trials.
(A) EPR spectra of iron-nitrosyl Hb derivatives formed by incubation of 19 μM NO with 393 μM Hb at various degrees of oxygen saturation in 10 mM phosphate buffer, pH 7.4. […]

SMILES: [N]=O [NO, nitric oxide]
- nitrosyl yield (oxyHb; 1.2 μM NO added to 48 μM oxyHb): approximately 500 nM
- share of nitrosyl yield that is SNO (oxyHb; 1.2 μM NO added to 48 μM oxyHb): ≈ 80%
- nitrosyl yield relative to the [Hb] (oxyHb; 1.2 μM NO, ≈99% O2 saturation, 10 mM phosphate): 3 to 0.6%
- maximum yield of nitrosyl species (oxyHb; 1.2 μM NO, ≈99% O2 saturation, 10 mM phosphate, increasing [Hb]): approximately 50 % of NO added
- nitrosyl yields under normoxic conditions (oxyHb; heme vacancies only ≈1%): ≤ 6 % of Hb
- decrease of K over the 0 to 80% range of oxygen saturation (Hb; 10 mM phosphate): 7 fold
- decrease of K by extrapolation (Hb; 10 mM phosphate, at 90% saturation): 100 fold
- K (κ = kox/kadd) from fit of Eq. 4 (Hb; 100 mM phosphate, pH 7.4, average of the two curves): 1.40±0.06
